Where two headings read alike, the source gives them in different places.
Key:
KRas G12C [1] = target: KRas G12C (Homo sapiens, UniProt P01116, C118S/C51S/C80L/G12C); assay: KRas G12C Modification Assay (LCMS detection of covalent adduct); format: binding
Description: A 10 μL aliquot of each protein solution was then transferred to a 384 well microtiter plate. Initial compound stocks were generated at fifty times their desired final assay concentration in DMSO.
Exemplary compounds of Formula (I) were diluted 25-fold into K-Ras Assay Buffer to a final of two times their final concentration. A 10 μL aliquot of each diluted compound solution was then added to each of the protein solutions in the microtiter plate to initiate reaction. […] At each time point, the reactions were quenched with 20 μL of a 25 mM acetic acid solution. […] Once all reactions were quenched, the plates were heat sealed and the samples were injected into a LC/MS system for data acquisition.
Samples were injected in their liquid phase onto a C-3 reverse phase column to remove assay buffer and prepare the samples for mass spectrometer. The proteins were eluted from the column using an acetonitrile gradient and fed directly into the mass analyzer. Initial raw data analysis took place in Agilent MassHunter software immediately post data acquisition.
Raw data analysis of the intact protein was exclusively a deconvolution of the multiple charge states of each protein in solution using a maximum entropy deconvolution provided in Mass Hunter. To minimize complexity, only the data over limited mass ranges were considered for analysis, with a minimum of one Dalton mass step intervals. The heights of all masses identified during raw data analysis were exported to be further analyzed in Spotfire® data analysis software.
Final data analysis was a multistep process in the Spotfire® data analysis software package. Briefly, each protein mass was calculated as a percent of the total signal of that sample, that percentage was then normalized to the percentage of signal of the protein in the absence of reactive compounds. Those normalized signals were reported as normalized percent of control (POC). […] Key: “A”≤25% POC; “B”>25% POC-≤50% POC; “C”>50% POC and ND=not determined.

KRas G12C [2] = target: KRas G12C (Homo sapiens, UniProt P01116, G12C); assay: Cellular inhibition of KRas G12C measured by Phospho-ERK in NCI-H358 cells; format: cell-based
In short: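 NCI-H358 cells treated 3 h with compound (0.5% DMSO final), then fixed and methanol-permeabilised. In-cell immunofluorescence measured pERK(Thr202/Tyr204) normalised to GAPDH as percent of DMSO control. IC50 from a 4-parameter dose-response fit.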

[3] = pERK(Thr202/Tyr204) normalized with GAPDH, NCI-H358 cells, 3 hours, read-out: IC50
[4] = normalized percent of control, 5 μM concentration for 3 hours

With `C=CC(=O)N1CCN(c2nc(OCCCN3CCOCC3)nc3c2CCN(c2cc(O)cc4sc(C)nc24)C3)CC1` [Example 166, 1-[4-[7-(6-hydroxy-2-methyl-1,3-benzothiazol-4-yl)-2-(3-morpholinopropoxy)-6,8-dihydro-5H-pyrido[3,4-d]pyrimidin-4-yl]piperazin-1-yl]prop-2-en-1-one] the POC (KRas G12C [1]; 5 µM) was “B (key: “A”≤25% POC; “B”>25% POC-≤50% POC; “C”>50% POC)” and the IC50 (KRas G12C [2]; [3]) was greater than 1000 nM.

`C=CC(=O)N1CCN(c2nc(OCCCN3CCOCC3)nc3c2CCN(c2cc(O)cc4cc(C)[nH]c24)C3)CC1` [Example 167, 1-(4-(7-(5-hydroxy-2-methyl-1H-indol-7-yl)-2-(3-morpholinopropoxy)-5,6,7,8-tetrahydropyrido[3,4-d]pyrimidin-4-yl)piperazin-1-yl)prop-2-en-1-one] was tested, and the POC (KRas G12C [1]; [4]) was “B (“B”>25% POC-≤50% POC)” and the IC50 (KRas G12C [2]; [3]) was greater than 1000 nM.

For `C=CC(=O)N1CCN(c2nc(OCCN(C)C)nc3c2CCN(c2cc(O)cc4ccccc24)C3)CC1CCO` (stereo not shown) [Example 171, 1-(4-(2-(2-(dimethylamino)ethoxy)-7-(3-hydroxynaphthalen-1-yl)-5,6,7,8-tetrahydropyrido[3,4-d]pyrimidin-4-yl)-2-(2-hydroxyethyl)piperazin-1-yl)prop-2-en-1-one], the POC (KRas G12C [1]; 5 µM) was “C (key: “A”≤25% POC; “B”>25% POC-≤50% POC; “C”>50% POC)” and the IC50 (KRas G12C [2]; IC50) was greater than 1000 nM.

With `C=CC(=O)N1CCN(c2nc(OCCCN3CCOCC3)nc3c2CCN(c2c(C)c(O)cc4ccccc24)C3)CC1` [Example 173, 1-(4-(7-(3-hydroxy-2-methylnaphthalen-1-yl)-2-(3-morpholinopropoxy)-5,6,7,8-tetrahydropyrido[3,4-d]pyrimidin-4-yl)piperazin-1-yl)prop-2-en-1-one] the POC (KRas G12C [1]; [4]) was “C (“C”>50% POC)” and the IC50 (KRas G12C [2]; [3]) was greater than 1000 nM.

For `C=CC(=O)N1CCN(c2nc(OC[C@@H]3CCCN3C)nc3c2CCN(c2c(C)c(O)cc4ccccc24)C3)CC1` [Example 175, (S)-1-(4-(7-(3-hydroxy-2-methylnaphthalen-1-yl)-2-((1-methylpyrrolidin-2-yl)methoxy)-5,6,7,8-tetrahydropyrido[3,4-d]pyrimidin-4-yl)piperazin-1-yl)prop-2-en-1-one], the POC (KRas G12C [1]; [4]) was “C (“C”>50% POC)” and the IC50 (KRas G12C [2]; [3]) was 0.1 to 1000 nM.

With `C=CC(=O)N1CCN(c2nc(OC[C@@H]3CCN(C)C3)nc3c2CCN(c2cccc4ccccc24)C3)CC1CC#N` (stereo partly drawn) [Example 177, 2-[4-[2-[[(3R)-1-methylpyrrolidin-3-yl]methoxy]-7-(1-naphthyl)-6,8-dihydro-5H-pyrido[3,4-d]pyrimidin-4-yl]-1-prop-2-enoyl-piperazin-2-yl]acetonitrile] the POC (KRas G12C [1]; [4]) was “C (“C”>50% POC)” and the IC50 (KRas G12C [2]; [3]) was 0.1 to 1000 nM.

For `C=CC(=O)N1CCN(c2nc(OCCCN3CCOCC3)nc3c2CCN(c2c(C(F)(F)F)ccc4[nH]ncc24)C3)CC1` [Example 180, 1-[4-[2-(3-morpholinopropoxy)-7-[5-(trifluoromethyl)-1H-indazol-4-yl]-6,8-dihydro-5H-pyrido[3,4-d]pyrimidin-4-yl]piperazin-1-yl]prop-2-en-1-one], the POC (KRas G12C [1]; [4]) was “C (“C”>50% POC)” and the IC50 (KRas G12C [2]; [3]) was 0.1 to 1000 nM.

With `C=CC(=O)N1CCN(c2nc(OC[C@@H]3CCCN3C)nc3c2CCN(c2cc(O)cc4ccccc24)C3)CC1CC#N` (stereo partly drawn) [Example 182, 2-[4-[7-(3-hydroxy-1-naphthyl)-2-[[(2S)-1-methylpyrrolidin-2-yl]methoxy]-6,8-dihydro-5H-pyrido[3,4-d]pyrimidin-4-yl]-1-prop-2-enoyl-piperazin-2-yl]acetonitrile] the POC (KRas G12C [1]; [4]) was “C (“C”>50% POC)” and the IC50 (KRas G12C [2]; [3]) was 0.1 to 1000 nM.

For `C=CC(=O)N1CCN(c2nc(OC[C@H]3CCCN3C)nc3c2CCN(c2cccc4ccccc24)C3)CC1CC#N` (stereo partly drawn) [Example 183, 2-[4-[2-[[(2R)-1-methylpyrrolidin-2-yl]methoxy]-7-(1-naphthyl)-6,8-dihydro-5H-pyrido[3,4-d]pyrimidin-4-yl]-1-prop-2-enoyl-piperazin-2-yl]acetonitrile], the POC (KRas G12C [1]; [4]) was “C (“C”>50% POC)” and the IC50 (KRas G12C [2]; [3]) was 0.1 to 1000 nM.

With `C=CC(=O)N1CCN(c2nc(OCCCN3CCOCC3)nc3c2CCN(c2cc(O)cc4cccnc24)C3)CC1` [Example 205, 1-(4-(7-(6-hydroxyquinolin-8-yl)-2-(3-morpholinopropoxy)-5,6,7,8-tetrahydropyrido[3,4-d]pyrimidin-4-yl)piperazin-1-yl)prop-2-en-1-one] the POC (KRas G12C [1]; [4]) was “C (“C”>50% POC)” and the IC50 (KRas G12C [2]; [3]) was greater than 1000 nM.

In the case of `C=CC(=O)N1CCN(c2nc(OCCCN3CC4CC4C3)nc3c2CCN(c2cc(O)cc4ccccc24)C3)CC1` (stereo not shown) [Example 206, 1-(4-(2-(3-(3-azabicyclo[3.1.0]hexan-3-yl)propoxy)-7-(3-hydroxynaphthalen-1-yl)-5,6,7,8-tetrahydropyrido[3,4-d]pyrimidin-4-yl)piperazin-1-yl)prop-2-en-1-one], the POC (KRas G12C [1]; [4]) is reported as “C (“C”>50% POC)” and the IC50 (KRas G12C [2]; [3]) is reported as 0.1 to 1000 nM.

`C=CC(=O)N1CCN(c2nc(OCCN3CCC[C@@H](F)C3)nc3c2CCN(c2cc(O)cc4ccccc24)C3)CC1` [Example 207, (R)-1-(4-(2-(2-(3-fluoropiperidin-1-yl)ethoxy)-7-(3-hydroxynaphthalen-1-yl)-5,6,7,8-tetrahydropyrido[3,4-d]pyrimidin-4-yl)piperazin-1-yl)prop-2-en-1-one] was tested, and the POC (KRas G12C [1]; [4]) was “C (“C”>50% POC)” and the IC50 (KRas G12C [2]; [3]) was greater than 1000 nM.

In the case of `C=CC(=O)N1CCN(c2nc(OCCCN3C[C@@H](F)[C@@H](F)C3)nc3c2CCN(c2cc(O)cc4ccccc24)C3)CC1` [Example 208, 1-(4-(2-(3-((3R,4S)-3,4-difluoropyrrolidin-1-yl)propoxy)-7-(3-hydroxynaphthalen-1-yl)-5,6,7,8-tetrahydropyrido[3,4-d]pyrimidin-4-yl)piperazin-1-yl)prop-2-en-1-one], the POC (KRas G12C [1]; [4]) is reported as “C (“C”>50% POC)” and the IC50 (KRas G12C [2]; [3]) is reported as greater than 1000 nM.

In the case of `C=CC(=O)N1CCN(c2nc(OC[C@@H]3CCCN3C)nc3c2CCN(c2ccccc2C(F)(F)F)C3)CC1CC#N` (stereo partly drawn) [Example 210, 2-(1-acryloyl-4-(2-(((S)-1-methylpyrrolidin-2-yl)methoxy)-7-(2-(trifluoromethyl)phenyl)-5,6,7,8-tetrahydropyrido[3,4-d]pyrimidin-4-yl)piperazin-2-yl)acetonitrile], the POC (KRas G12C [1]; [4]) is reported as “C (“C”>50% POC)” and the IC50 (KRas G12C [2]; [3]) is reported as 0.1 to 1000 nM.

In the case of `C=CC(=O)N1CCN(c2nc(OC[C@@H]3C[C@@H](F)CN3C)nc3c2CCN(c2cccc4ccccc24)C3)CC1CC#N` (stereo partly drawn) [Example 220, 2-(1-acryloyl-4-(2-(((2S,4R)-4-fluoro-1-methylpyrrolidin-2-yl)methoxy)-7-(naphthalen-1-yl)-5,6,7,8-tetrahydropyrido[3,4-d]pyrimidin-4-yl)piperazin-2-yl)acetonitrile], the POC (KRas G12C [1]; [4]) is reported as “C (“C”>50% POC)” and the IC50 (KRas G12C [2]; [3]) is reported as 0.1 to 1000 nM.

In the case of `C=CC(=O)N1CCN(c2nc(OCCCO)nc3c2CCN(c2cccc4ccccc24)C3)CC1CC#N` (stereo not shown) [Example 231, 2-(1-acryloyl-4-(2-(3-hydroxypropoxy)-7-(naphthalen-1-yl)-5,6,7,8-tetrahydropyrido[3,4-d]pyrimidin-4-yl)piperazin-2-yl)acetonitrile], the POC (KRas G12C [1]; [4]) is reported as “C (“C”>50% POC)” and the IC50 (KRas G12C [2]; [3]) is reported as 0.1 to 1000 nM.

With `C=CC(=O)N1CCN(c2nc(OC[C@@H]3CCCN3C)nc3c2CCN(c2cccc4ccccc24)C3)C[C@@H]1CC#N` [Example 234, 2-((S)-1-acryloyl-4-(2-(((S)-1-methylpyrrolidin-2-yl)methoxy)-7-(naphthalen-1-yl)-5,6,7,8-tetrahydropyrido[3,4-d]pyrimidin-4-yl)piperazin-2-yl)acetonitrile] the POC (KRas G12C [1]; [4]) was “C (“C”>50% POC)” and the IC50 (KRas G12C [2]; [3]) was 0.1 to 1000 nM.

`CC#CC(=O)N1CCN(c2nc(OC[C@@H]3CCCN3C)nc3c2CCN(c2cccc4ccccc24)C3)CC1CC#N` (stereo partly drawn) [Example 242, 2-(1-(but-2-ynoyl)-4-(2-(((S)-1-methylpyrrolidin-2-yl)methoxy)-7-(naphthalen-1-yl)-5,6,7,8-tetrahydropyrido[3,4-d]pyrimidin-4-yl)piperazin-2-yl)acetonitrile] was tested, and the POC (KRas G12C [1]; [4]) was “C (“C”>50% POC)” and the IC50 (KRas G12C [2]; [3]) was 0.1 to 1000 nM.

`C=CC(=O)N1CCN(c2nc(OC[C@@H]3CCCN3C)nc3c2CCN(c2cccc4ccc(C)cc24)C3)CC1CC#N` (stereo partly drawn) [Example 245, 2-[4-[7-(7-methyl-1-naphthyl)-2-[[(2S)-1-methylpyrrolidin-2-yl]methoxy]-6,8-dihydro-5H-pyrido[3,4-d]pyrimidin-4-yl]-1-prop-2-enoyl-piperazin-2-yl]acetonitrile] was tested, and the POC (KRas G12C [1]; [4]) was “C (“C”>50% POC)” and the IC50 (KRas G12C [2]; [3]) was 0.1 to 1000 nM.

With `C=CC(=O)N1CCN(c2nc(OC[C@@H]3CCCN3C)nc3c2CCN(c2c(C(C)C)ccc4[nH]ncc24)C3)CC1` [Example 248, (S)-1-(4-(7-(5-isopropyl-1H-indazol-4-yl)-2-((1-methylpyrrolidin-2-yl)methoxy)-5,6,7,8-tetrahydropyrido[3,4-d]pyrimidin-4-yl)piperazin-1-yl)prop-2-en-1-one] the POC (KRas G12C [1]; 5 µM) was “C (key: “A”≤25% POC; “B”>25% POC-≤50% POC; “C”>50% POC)” and the IC50 (KRas G12C [2]; [3]) was greater than 1000 nM.

— patent US10689377B2 (Mirati Therapeutics, Inc., priority 2017, dated 2020)
